# In US20260217701A1, “SELECTIVE BET INHIBITORS AND USES THEREOF” (Tay Therapeutics Limited, priority 2022, published 2026):
# “And” between values parts separate entries of the source, which are not always exact repeats. Equal entries are not always repeated.
# Tested on: imiquimod-induced psoriasis
# Assay: Imiquimod-induced psoriasis model
# Type: in vivo, mice
# Parameters: Spleen Weight / Spleen Weight Ratio: unit not given here
# Conditions: for PASI Scores: IMI + Clobetasol 0.05%; for Mean scores of the presence of erythema on the skin of animals at the area of induction of psoriasis / Mean scores of the presence of induration on the skin of animals at the area of induction of psoriasis / Mean scores of the presence of peeling on the skin of animals at the area of induction of psoriasis: mean ± SEM
# From the text: Imiquimod-induced psoriasis is a model of psoriasis in mice that induces psoriasis-like dermatitis. The pathology closes resembles human plaque-type psoriasis and is a valuable tool for testing new therapies against psoriasis. […] Compound A was formulated in a 5% DMSO/40% PEG-400/55% (0.9% NaCl w/v water) solution (Table 2F). Experimental groups for the study are outlined in Table 4. Prior to study initiation, the backs of all animals in the study were depilated to allow for induction of psoriasis and monitoring of disease progression.
# Once assigned to experimental groups, on Day 1 and continuing through Day 14, topical imiquimod (IMI; Aldara™ containing 5% Imiquimod) was administered to the dorsal depilated animals, and animals in group 1 received topical administration of Excipial® hydrocream (65 mg). […] Clobetasol was applied topically for animals in group 11.
# Body weights were recorded three times a week from Day 1 to Day 8, and daily from Day 8 until the study end at Day 15. At termination on D15 the spleen weight ratio was determined. Disease severity was assessed using the psoriasis area severity index (PASI) daily from Day 8 until study completion on Day 15. The PASI score was calculated based on three parameters (presence of erythema, induration of the skin, and peeling of the skin at the area of induction) on a scale of 0 to 4 (0=no more or absence, 1=low, 2=moderate, 3=high, 4=severe). The PASI score for each animal was calculated as the sum of the score of each parameter measured. The score of the use of enrichment (SUE) was also assessed daily from Day 8 to Day 15. At study completion on Day 15, animal behavior was evaluated using an open field to assess distance travelled, number scratching, and licking and rearing performed in 10 minutes. Upon study termination animals were sacrificed, the spleen was excised and weighed, and blood samples were collected. Serum was isolated from the blood sample for cytokine and other biomarker analysis. IL-1B, IL-6, IL-17, and TNF-α assayed using simple plex technique on an ELLA automated immunoassay system. IL-22 and IL-23 were assayed by ELISA.
# The imiquimod-induced model of psoriasis was used to assess the efficacy of Compound A in treating psoriasis. […] Treatment started on Day 8 after induction so reference to day 1 of treatment is to Day 8 and day 7 of treatment is to Day 14.
# [1] = IMI-psoriasis model, behavioral evaluation D15, 0.05%, individual animals
# [2] = IMI-psoriasis model, behavioral evaluation, 0.05%, individual animals
# [3] = IMI-psoriasis model, mice, 0.05%, individual animals
# [4] = IMI + 0.05%, D8 (before start of treatment)
smiles,measurement,setting,value
"C[C@H]1C[C@H]2[C@@H]3CCC4=CC(=O)C=C[C@]4(C)[C@@]3(F)[C@@H](O)C[C@]2(C)[C@@]1(O)C(=O)CCl [Clobetasol, reference compound]",Body Weight D1,"IMI + 0.05%, Day 1 (before treatment start on Day 8), individual animals",17.07 and 17.52 and 19.31 and 18.57 and 18.72 and 16.56 and 17.64 and 16.77
same,Body Weight D3,"IMI + 0.05%, Day 3 (before treatment start on Day 8), individual animals",14.93 and 16.02 and 17.76 and 17.57 and 17.77 and 14.09 and 14.81 and 14.86
same,Body Weight D5,"IMI + 0.05%, Day 5 (before treatment start on Day 8), individual animals",16.15 and 15.56 and 18.21 and 17.74 and 16.72 and 15.29 and 15.64 and 15.11
same,Body Weight D7,"IMI + 0.05%, Day 7 (before treatment start on Day 8), individual animals",15.51 and 15.49 (2×) and 18.30 and 17.72 and 17.41 and 15.14 and 16.24
same,Body Weight D8,"IMI + 0.05%, Day 8 (first day of treatment), individual animals",15.82 and 15.39 and 18.05 and 17.68 and 16.64 and 14.96 and 16.14 and 14.67
same,Body Weight D9,"IMI + 0.05%, Day 9, individual animals",15.95 and 14.96 and 17.53 and 16.98 and 15.65 and 14.35 and 14.99 and 14.71
same,Body Weight D10,"IMI + 0.05%, Day 10, individual animals",15.11 and 14.48 and 17.43 and 16.38 and 15.37 and 14.04 and 14.71 and 14.32
same,Body Weight D11,"IMI + 0.05%, Day 11, individual animals",15.27 and 14.85 and 17.41 and 16.38 and 15.58 and 13.84 and 14.92 and 14.21
same,Body Weight D12,"IMI + 0.05%, Day 12, individual animals",14.64 and 14.74 and 17.02 and 15.95 and 15.45 and 13.69 and 15.73 and 14.31
same,Body Weight D13,"IMI + 0.05%, Day 13, individual animals",14.45 and 14.82 and 16.74 and 15.71 and 15.24 and 13.39 and 14.65 and 14.05
same,Body Weight D14,"IMI + 0.05%, Day 14, individual animals",14.55 and 14.89 and 16.65 and 15.49 and 15.08 and 13.55 and 14.66 and 14.04
same,Body Weight D15,"IMI + 0.05%, Day 15, individual animals",14.30 and 14.75 and 16.22 and 15.41 and 14.99 and 13.32 and 14.54 and 14.22
same,MBWC D1-D8,"IMI + 0.05%, body weight change Day 1 to Day 8 (before treatment), individual animals",−1.25 and −2.13 and −1.26 and −0.89 and −2.08 and −1.60 and −1.50 and −2.10
same,MBWC D8-D15,"IMI + 0.05%, body weight change Day 8 to Day 15 (treatment period), individual animals",−1.52 and −0.64 and −1.83 and −2.27 and −1.65 and −1.64 and −1.60 and −0.45
same,PASI Scores,"D8 (day treatment started), individual animals",7 (5×) and 8 (3×)
same,PASI Scores,"D9, individual animals",6 (2×) and 4 (4×) and 5 (2×)
same,PASI Scores,"D10, individual animals",3 (5×) and 2 (2×) and 4
same,PASI Scores,"D11, individual animals",0 (5×) and 1 and 2 (2×)
same,PASI Scores,"D12, individual animals",1 (6×) and 0 (2×)
same,PASI Scores,"D13, individual animals",1 (3×) and 0 (5×)
same,PASI Scores,"D14, individual animals",0 (7×) and 1
same,PASI Scores,"D15, individual animals",0 (7×) and 1
same,Use Enrichment D1,"IMI-psoriasis model, D1, 0.05%, per cage (two animals)",4.0
same,Use Enrichment D9,"IMI-psoriasis model, D9, 0.05%, per cage (two animals)",2.0 and 1.5 and 1.0
same,Use Enrichment D10,"IMI-psoriasis model, D10, 0.05%, per cage (two animals)",4.0 and 3.5 and 3.0
same,Use Enrichment D11,"IMI-psoriasis model, D11, 0.05%, per cage (two animals)",4.0 and 3.0
same,Use Enrichment D13,"IMI-psoriasis model, D13, 0.05%, per cage (two animals)",4.0 and 3.5
same,Use Enrichment D14,"IMI-psoriasis model, D14, 0.05%, per cage (two animals)",4.0
same,Use Enrichment D15,"IMI-psoriasis model, D15, 0.05%, per cage (two animals)",4.0
same,Number Licking,[1],1 (2×) and 2 (4×) and 5 (2×)
same,Number Licking + Scratching,[1],1 (2×) and 2 (4×) and 5 (2×)
same,Number Scratching,[1],0
same,Distance Traveled,[2],9 m (2×) and 5 m and 10 m (3×) and 15 m and 16 m
same,Number Rearings,[2],10 and 6 (2×) and 31 and 19 and 4 and 39 and 25
same,Use Enrichment Mean D1-D8,"IMI-psoriasis model, mean D1-D8, 0.05%, per cage (two animals)",2.50 and 2.75 and 2.25
same,Use Enrichment Mean D8-D15,"IMI-psoriasis model, mean D8-D15, 0.05%, per cage (two animals)",3.71 and 3.50 and 2.86 and 3.14
same,Spleen Weight,[3],39.92 and 30.38 and 50.46 and 44.29 and 37.25 and 36.61 and 35.08 and 34.69
same,Spleen Weight Ratio,[3],279.16 and 205.97 and 311.10 and 287.41 and 248.50 and 274.85 and 241.27 and 243.95
same,Mean scores of the presence of erythema on the skin of animals at the area of induction of psoriasis,[4],2.3 ± 0.2
same,Mean scores of the presence of induration on the skin of animals at the area of induction of psoriasis,[4],2.8 ± 0.2
same,Mean scores of the presence of peeling on the skin of animals at the area of induction of psoriasis,[4],2.4 ± 0.2
same,Mean scores of the presence of erythema on the skin of animals at the area of induction of psoriasis,"IMI + 0.05%, D9",1.8 ± 0.2
same,Mean scores of the presence of induration on the skin of animals at the area of induction of psoriasis,"IMI + 0.05%, D9",1.3 ± 0.2
same,Mean scores of the presence of peeling on the skin of animals at the area of induction of psoriasis,"IMI + 0.05%, D9",1.8 ± 0.3
same,Mean scores of the presence of erythema on the skin of animals at the area of induction of psoriasis,"IMI + 0.05%, D10",1.0 ± 0.2
same,Mean scores of the presence of induration on the skin of animals at the area of induction of psoriasis,"IMI + 0.05%, D10",1.0 ± 0.0
same,Mean scores of the presence of peeling on the skin of animals at the area of induction of psoriasis,"IMI + 0.05%, D10",0.9 ± 0.1
same,Mean scores of the presence of erythema on the skin of animals at the area of induction of psoriasis,"IMI + 0.05%, D11",0.3 ± 0.2
same,Mean scores of the presence of induration on the skin of animals at the area of induction of psoriasis,"IMI + 0.05%, D11",0.0 ± 0.0
same,Mean scores of the presence of peeling on the skin of animals at the area of induction of psoriasis,"IMI + 0.05%, D11",0.4 ± 0.2
same,Mean scores of the presence of erythema on the skin of animals at the area of induction of psoriasis,"IMI + 0.05%, D12",0.0 ± 0.0
same,Mean scores of the presence of induration on the skin of animals at the area of induction of psoriasis,"IMI + 0.05%, D12",0.0 ± 0.0
same,Mean scores of the presence of peeling on the skin of animals at the area of induction of psoriasis,"IMI + 0.05%, D12",0.8 ± 0.2
same,Mean scores of the presence of erythema on the skin of animals at the area of induction of psoriasis,"IMI + 0.05%, D13",0.0 ± 0.0
same,Mean scores of the presence of induration on the skin of animals at the area of induction of psoriasis,"IMI + 0.05%, D13",0.0 ± 0.0
same,Mean scores of the presence of peeling on the skin of animals at the area of induction of psoriasis,"IMI + 0.05%, D13",0.4 ± 0.2
same,Mean scores of the presence of erythema on the skin of animals at the area of induction of psoriasis,"IMI + 0.05%, D14",0.0 ± 0.0
same,Mean scores of the presence of induration on the skin of animals at the area of induction of psoriasis,"IMI + 0.05%, D14",0.0 ± 0.0
same,Mean scores of the presence of peeling on the skin of animals at the area of induction of psoriasis,"IMI + 0.05%, D14",0.1 ± 0.1
same,Mean scores of the presence of erythema on the skin of animals at the area of induction of psoriasis,"IMI + 0.05%, D15",0.0 ± 0.0
same,Mean scores of the presence of induration on the skin of animals at the area of induction of psoriasis,"IMI + 0.05%, D15",0.0 ± 0.0
same,Mean scores of the presence of peeling on the skin of animals at the area of induction of psoriasis,"IMI + 0.05%, D15",0.1 ± 0.1
same,Mean PASI Scores in IMI-Psoriasis Model,"mice, IMI + 0.05%, D8 (before start of treatment)",7.4 ± 0.2
same,Mean PASI Scores in IMI-Psoriasis Model,"mice, IMI + 0.05%, D9",4.8 ± 0.3
same,Mean PASI Scores in IMI-Psoriasis Model,"mice, IMI + 0.05%, D10",2.8 ± 0.2
same,Mean PASI Scores in IMI-Psoriasis Model,"mice, IMI + 0.05%, D11",0.6 ± 0.3
same,Mean PASI Scores in IMI-Psoriasis Model,"mice, IMI + 0.05%, D12",0.8 ± 0.2
same,Mean PASI Scores in IMI-Psoriasis Model,"mice, IMI + 0.05%, D13",0.4 ± 0.2
same,Mean PASI Scores in IMI-Psoriasis Model,"mice, IMI + 0.05%, D14",0.1 ± 0.1
same,Mean PASI Scores in IMI-Psoriasis Model,"mice, IMI + 0.05%, D15",0.1 ± 0.1
